Laboratory results from US20180030080A1, “Phosphoramidate nucleoside prodrug for treating viral diseases and cancer, processes for their preparation and their use” (ASAVI, LLC, priority 2016, published 2018).
Like-named read-outs stand apart in the source and are kept apart here.

Legend:
HCV replicon gT1b = assay: HCV replicon assay, genotype gT1b; assay type: cell-based; settings: Hepatitis C virus
Description: (§1) Anti-HCV activity (EC50) and cytotoxicity (CC50) of prodrugs of general formula 1. The HCV replicon assay was used to determine the antiviral activity of chemotherapeutic agents of general formula 1 (test compounds). Sovaldi (PSI-7977) was used as the reference drug. The test cell line used in the HCV Replicon Assay was the human hepatoma cell line Huh7 incorporating the HCV replicons synthesized by an outside vendor. 96-well plates were seeded with cells at a density of 7.5×10^3 cells per well in 50 μl of assay media. The compound stock solution was made up freshly in an assay medium (DMEM 1×, Cellgro; cat. #10-013-CV) as a 2× stock. A total of 11 serial 3-fold dilutions of test compounds were prepared from the 2× stock in the assay media ranging from 20 nM-0.2 pM final concentrations. At least 4 hours after seeding the cells, compound treatment was initiated by adding 50 μl of compound dilution to the plates. […] The final DMSO concentration was 0.5%. Cells and inhibitors were incubated for 3 days at 37° C./5% CO2. The media was removed from the plates by gentle tapping. The cells were fixed with 100 μl 1:1 acetone:methanol for 1 minute, washed three times with PBS buffer, and then blocked with 150 μl/well 10% Fetal Bovine Serum (FBS) in PBS for 1 hour at room temperature. The cells were then washed three times with PBS buffer and incubated with 100 μl/well anti-hepatitis C core mAb (Affinity BioReagents; cat. # MA1-080, 1 mg/ml stock diluted 1:4,000 in 10% FBS-PBS) for 2 hours at 37° C. Then, the cells were washed three times with PBS and incubated with 100 μl/well HRP-Goat Anti-Mouse antibody (diluted 1:3.500 in 10% FBS-PBS) for 1 hour at 37° C. The cells were then washed three times with PBS and developed with an OPD solution, 100 μl/well (1 OPD tablet+12 ml citrate/phosphate buffer+5 μl 30% H2O2 per plate), for 30 minutes in the dark at room temperature. The reaction was stopped with 2N H2SO4 (100 μl/well), and the absorbance was measured at A490 X on a Victor^3 V 1420 multilabel counter (Perkin Elmer). The EC50 values were calculated for test compounds from the resulting best-fit equations determined by Xlfit software (Table 1).

HCV replicon gT4a = assay: HCV replicon assay, genotype gT4a; assay type: cell-based; settings: Hepatitis C virus, mean
Description: as §1, with “The cells were then washed three times with PBS and developed with an OPD solution, 100 μl/well (1 OPD tablet+12 ml citrate/phosphate buffer+5 μl 30% H2O2 per plate), for 30 minutes in the dark at room temperature.” left out

HCV replicon gT1a = assay: HCV replicon assay, genotype gT1a; assay type: cell-based; settings: Hepatitis C virus, mean
Description: as §1, with “The cells were then washed three times with PBS and developed with an OPD solution, 100 μl/well (1 OPD tablet+12 ml citrate/phosphate buffer+5 μl 30% H2O2 per plate), for 30 minutes in the dark at room temperature.” left out

HCV replicon gT3a = assay: HCV replicon assay, genotype gT3a; assay type: cell-based; settings: Hepatitis C virus, mean
Description: as §1, with “The cells were then washed three times with PBS and developed with an OPD solution, 100 μl/well (1 OPD tablet+12 ml citrate/phosphate buffer+5 μl 30% H2O2 per plate), for 30 minutes in the dark at room temperature.” left out

HCV replicon gT5a = assay: HCV replicon assay, genotype gT5a; assay type: cell-based; settings: Hepatitis C virus, mean
Description: as §1, with “The cells were then washed three times with PBS and developed with an OPD solution, 100 μl/well (1 OPD tablet+12 ml citrate/phosphate buffer+5 μl 30% H2O2 per plate), for 30 minutes in the dark at room temperature.” left out

HCV replicon gT2a = assay: HCV replicon assay, genotype gT2a; assay type: cell-based; settings: Hepatitis C virus, mean
Description: Anti-HCV activity (EC50) and cytotoxicity (CC50) of prodrugs of general formula 1. The HCV replicon assay was used to determine the antiviral activity of chemotherapeutic agents of general formula 1 (test compounds). Sovaldi (PSI-7977) was used as the reference drug. The test cell line used in the HCV Replicon Assay was the human hepatoma cell line Huh7 incorporating the HCV replicons synthesized by an outside vendor. 96-well plates were seeded with cells at a density of 7.5×10^3 cells per well in 50 μl of assay media. The compound stock solution was made up freshly in an assay medium (DMEM 1×, Cellgro; cat. #10-013-CV) as a 2× stock. A total of 11 serial 3-fold dilutions of test compounds were prepared from the 2× stock in the assay media ranging from 20 nM-0.2 pM final concentrations. At least 4 hours after seeding the cells, compound treatment was initiated by adding 50 μl of compound dilution to the plates. The final concentrations of compound therefore ranged from 10 nM to 0.1 pM when diluted 1:1 in culture media. The final DMSO concentration was 0.5%. Cells and inhibitors were incubated for 3 days at 37° C./5% CO2. The media was removed from the plates by gentle tapping. The cells were fixed with 100 μl 1:1 acetone:methanol for 1 minute, washed three times with PBS buffer, and then blocked with 150 μl/well 10% Fetal Bovine Serum (FBS) in PBS for 1 hour at room temperature. The cells were then washed three times with PBS buffer and incubated with 100 μl/well anti-hepatitis C core mAb (Affinity BioReagents; cat. # MA1-080, 1 mg/ml stock diluted 1:4,000 in 10% FBS-PBS) for 2 hours at 37° C. Then, the cells were washed three times with PBS and incubated with 100 μl/well HRP-Goat Anti-Mouse antibody (diluted 1:3.500 in 10% FBS-PBS) for 1 hour at 37° C. […] The reaction was stopped with 2N H2SO4 (100 μl/well), and the absorbance was measured at A490 X on a Victor^3 V 1420 multilabel counter (Perkin Elmer). The EC50 values were calculated for test compounds from the resulting best-fit equations determined by Xlfit software (Table 1).

HepG2 AD38 cell line = assay: Cytotoxicity (viability, CC50) reported with the anti-HBV test; assay type: cell-based; settings: for viability, %: concentration not given
HBV = assay: Anti-HBV activity in the AD-38 cell line using real-time quantitative PCR; assay type: cell-based; settings: against HBV; for EC50: AD-38 cells, 4 days, read-out: EC50; for inhibition, %: concentration not given
Description: Anti-HBV activity of prodrugs of general formula 1 determination in the AD-38 cell line using a real-time quanitative PCR. a) Cell cultures. HepG2 AD38 cell line, harboring an integrated over-the-length HBV genomic DNA (Lander S, et. al, Antimicrobal Agents and Chemotherapy, 1997, pg. 1715-1720) were provided by Dr. C. Seeger, Fox Chase Cancer Center, Philadelphia, Pa.). Cells were grown in complete media (DMEM/F12 with 2 mM L-Glutamine (Thermo Scientific, Cat #11320033), 10% Fetal Bovine Serum (ThermoFisher Scientific, Cat#), 1% Antibiotic-antimitotic solution (ThermoFisher Scientific, Cat#15240096), and 0.3 μg/ml tetracyclin (Sigma, Cat # T7660-5G). Cells were plated onto Corning Biocoat 96-well plates (Corning, Cat #356407) in 225 ul of complete media (without teracyclin), 20000 cells/well. The prodrugs of general formula 1 were dissolved first in DMSO (Sigma cat. D2650), then in DMEM/F12 and 9 serial 3× dilutions were prepared and added to cells in 22.5 μl. The final prodrugs concentrations ranged from 10 μM to 1 nM. Cells grown in the presence of tetracyclin were used as a positive control, as HBV replication in this cell line is turned off by thetracyclin. Cell plates were incubated for 4 days at 37 C, 5% CO2. b) HBV DNA isolation. After 4 days, viral DNA was isolated from culture supernatants using PureLink® Pro 96 Genomic DNA Purification Kit (ThermoFisher Scientific, Cat # K183104A), according to manufacturer's recommendations. Eluted DNA samples were stored at −20 C. c) Quantitative real-time PCR (qPCR). PCR was performed on the CFX96™ Real-Time System (Bio-Rad, Hercules, Calif.) using AmpliTaq Gold® DNA Polymerase (Applied Biosystems®).
Ct values (cycle threshold) were obtained for each prodrug sample and normalized to untreated cells, according to formula E=(1/(1+100%))̂(Ct[studied prodrug sample]−Ct[K-]), where E is a normalized expression of studied gene, Ct[K-] and Ct[studied prodrug sample] are Ct values of untreated cells and studied prodrug sample. Inhibition curves were obtained and EC50 values were calculated using the Graph Prizm software (Table 3).

HCV replicon = settings: cited from earlier work
HBV wild-type = settings: HBV wild-type; cited from earlier work
[1] = GT1B, read-out: IC50 HCV gT1b 10% FBS (mean)
[2] = gT1b, 40% NHS, mean, read-out: IC50 HCV gT1b 40% NHS (mean)

Molecule | CC50 (HepG2 AD38 cell line) [nM] | viability, % (HepG2 AD38 cell line) [%] | EC50 (HBV) [nM] | inhibition, % (HBV) [%] | also measured
CC(C)OC(=O)[C@H](C)OC(=O)[C@H](C)NP(=O)(OC[C@H]1O[C@@H](n2ccc(=O)[nH]c2=O)[C@](C)(F)[C@@H]1O)Oc1ccccc1 (stereo partly drawn) [1.2(2), (S)-1-isopropyloxycarbonyl-ethyl (S)-2-{[(2R,3R,4R,5R)-5-(2,4-dioxo-3,4-dihydro-2H-pyrimidin-1-yl)-4-fluoro-3-hydroxy-4-methyl-tetrahydro-furan-2-ylmethoxy]-phenoxy-phosphorylamino}-propanoate] | – | – | – | – | IC50 (HCV replicon gT1b; [1]): 18 nM; IC50 (HCV replicon gT1b; [2]): 34 nM; IC50 (HCV replicon gT4a): 80 nM; IC50 (HCV replicon gT1a): 57 nM; IC50 (HCV replicon gT3a): 69 nM; IC50 (HCV replicon gT5a): 185 nM; IC50 (HCV replicon gT2a): 24 nM
C=CCOC(=O)[C@H](C)N[P@](=O)(OC[C@@H]1O[C@H](n2cc(F)c(=O)[nH]c2=O)CS1)Oc1ccccc1 [1.2(97), allyl (S)-2-{(S)-[(2R,5S)-5-(5-fluoro-2,4-dioxo-3,4-dihydro-2H-pyrimidin-1-yl)-[1,3]oxathiolan-2-ylmethoxy]-phenoxy-phosphorylamino}-propanoate] | > 30000 | 91 | 370 ± 50 | 99 | –
CC(C)(CO)C(=O)SCCOP(=O)(COC[C@H]1OC(n2cnc3c(=O)[nH]c(N)nc32)[C@](C)(O)[C@@H]1O)NCc1ccccc1 (stereo partly drawn) [IDX-184] | – | – | – | – | EC50 (HCV replicon): 400 nM
C=C1[C@H](CO[P@@](=O)(N[C@@H](C)C(=O)O[C@@H](C)C(=O)OC(C)C)Oc2ccccc2)[C@@H](O)C[C@@H]1n1cnc2c(=O)[nH]c(N)nc21 [1.2(50), (S)-1-isopropoxycarbonyl-ethyl (S)-2-{(S)-[(1R,3S,5S)-3-(2-amino-6-oxo-1,6-dihydro-purin-9-yl)-5-hydroxy-2-methylene-cyclopentylmethoxy]-phenoxy-phosphorylamino}-propanoate] | > 30000 | 95 | 40 ± 30 | 100 | –
CC(C)OC(=O)[C@H](C)OC(=O)[C@H](C)N[P@](=O)(OC[C@@H]1O[C@H](n2cc(F)c(N)nc2=O)CS1)Oc1ccccc1 [1.2(93), (S)-1-isopropoxycarbonyl-ethyl (S)-2-{(S)-[(2R,5S)-5-(4-amino-5-fluoro-2-oxo-2H-pyrimidin-1-yl)-[1,3]oxathiolan-2-ylmethoxy]-phenoxy-phosphorylamino}-propanoate] | > 30000 | 94 | 40 ± 10 | 93 | –
COCCOC(=O)[C@H](C)N[P@](=O)(OC[C@@H]1O[C@H](n2ccc(=O)[nH]c2=O)CS1)Oc1ccccc1 [1.2(96), 2-methoxy-ethyl (S)-2-{(S)-[(2R,5S)-5-(2,4-dioxo-3,4-dihydro-2H-pyrimidin-1-yl)-[1,3]oxathiolan-2-ylmethoxy]-phenoxy-phosphorylamino}-propanoate] | > 30000 | 89 | 320 ± 80 | 96 | –
CC(C)OC(=O)[C@H](C)OC(=O)[C@H](C)N[P@](=O)(OC[C@@H]1O[C@H](n2ccc(N)nc2=O)CS1)Oc1ccccc1 [1.2(92), (S)-1-isopropoxycarbonyl-ethyl (S)-2-{(S)-[(2R,5S)-5-(4-amino-2-oxo-2H-pyrimidin-1-yl)-[1,3]oxathiolan-2-ylmethoxy]-phenoxy-phosphorylamino}-propanoate] | > 30000 | 103 | 800 ± 610 | 86 | –
C=CCOC(=O)[C@H](C)NP(=O)(OC[C@H]1O[C@@H](n2ccc(=O)[nH]c2=O)[C@](C)(F)[C@@H]1O)Oc1ccccc1 (stereo partly drawn) [1.2(9), allyl (S)-2-{[(2R,3R,4R,5R)-5-(2,4-dioxo-3,4-dihydro-2H-pyrimidin-1-yl)-4-fluoro-3-hydroxy-4-methyl-tetrahydro-furan-2-ylmethoxy]-phenoxy-phosphorylamino}-propanoate] | – | – | – | – | IC50 (HCV replicon gT1b; [1]): 29 nM; IC50 (HCV replicon gT1b; [2]): 34 nM; IC50 (HCV replicon gT4a): 100 nM; IC50 (HCV replicon gT1a): 54 nM; IC50 (HCV replicon gT3a): 51 nM; IC50 (HCV replicon gT5a): 146 nM; IC50 (HCV replicon gT2a): 23 nM
C=CCOC(=O)[C@H](C)N[P@](=O)(OC[C@@H]1O[C@H](n2ccc(=O)[nH]c2=O)CS1)Oc1ccccc1 [1.2(94), allyl (S)-2-{(S)-[(2R,5S)-5-(2,4-dioxo-3,4-dihydro-2H-pyrimidin-1-yl)-[1,3]oxathiolan-2-ylmethoxy]-phenoxy-phosphorylamino}-propanoate] | > 30000 | 101 | 300 ± 90 | 99 | –
COc1nc(N)nc2c1ncn2[C@@H]1O[C@H](COP(=O)(N[C@@H](C)C(=O)OC(C)C)Oc2ccccc2)[C@@H](O)[C@@]1(C)F (stereo partly drawn) [PSI-353661] | – | – | – | – | EC90 (HCV replicon; replicon assay): 8 nM; increase in potency compared to the guanosine analogue (HCV replicon; versus β-D-2′-deoxy-2′-R-fluoro-2′-β-C-methylguanosine): > 1000 fold
2′-fluoro-6′-methylene-carbocyclic adenosine [FMCA] | – | – | – | – | EC50 (HBV wild-type): 550 nM
